Data on seven compounds can be found in patent US9968573B2, “Endoprosthesis having and active substance coating” (HEMOTEQ AG, priority 2011, dated 2018).

In assay [1] the test system is L929 cell line. In words: In vitro cytotoxicity, growth inhibition of L929 cell line. It counts as cell-based. To be noted: 68-72 h. Here is the method:
The cytotoxic effect was tested on the growth inhibition of L929 cell line after incubation period of 68-72 h for 6 different concentrations according to relevant, valid DIN and ISO standards. DMEM 10% FCS was used as a negative control and the positive control was 5% DMSO in DMEM 10% FCS

The test system of assay [2] is Staphylococcus aureus (ATCC 6538). To be noted: Ti-Cylinder, rough surface. Here is the method:
Then, the minimum inhibitory concentration (MIC) for Staphylococcus aureus (ATCC 6538) is determined over a serial dilution series according to DIN 58940 (Part 7).

The subject of assay [3] is L929 cells. To be noted: Ti-Cylinder, rough surface, 24 h extract, L929 68 h. As to the method: This allows a conclusion on the proliferation of the cells during incubation.
In assay [4] the test system is partially resistant Staphylococcus aureus strains. To be noted: conversion of literature MIC to gentamicin pantothenate per cm^2.
Assay [5] has the same test system. To be noted: gentamicin as a pure substance (Alt et al., 2004); cited from earlier work.

Where two headings read alike, the source gives them in different places.

Take `O=C(O)c1ccccc1` [benzoic acid]: the “GI (growth inhibition of the cell line L929)” value stood at 10% in assay [1] (c 0.3 mg/mL, n = 3); 20% in assay [1] (c 0.6 mg/mL, n = 3); 35% in assay [1] (c 0.9 mg/mL, n = 3); 50% in assay [1] (c 1.5 mg/mL, n = 3); 64% in assay [1] (c 2.1 mg/mL, n = 3); 77% in assay [1] (c 3.0 mg/mL, n = 3).

For `CCCCCCCCCCCCCCCC(=O)O` [palmitic acid], the “GI (growth inhibition of the cell line L929)” value is on record as 2% in assay [1] (c 0.005 mg/mL, n = 3, solvent 0.5% ethanol); 5% in assay [1] (c 0.01 mg/mL, n = 3, solvent 0.5% ethanol); 8% in assay [1] (c 0.02 mg/mL, n = 3, solvent 0.5% ethanol); 17% in assay [1] (c 0.03 mg/mL, n = 3, solvent 0.5% ethanol); 22% in assay [1] (c 0.04 mg/mL, n = 3, solvent 0.5% ethanol); 30% in assay [1] (c 0.05 mg/mL, n = 3, solvent 0.5% ethanol).

On to `O=C(O)c1ccccc1O` [salicylic acid], for which the “GI (growth inhibition of the cell line L929)” value came out at 16% in assay [1] (c 0.1 mg/mL, n = 3); 19% in assay [1] (c 0.3 mg/mL, n = 3); 42% in assay [1] (c 0.5 mg/mL, n = 3); 54% in assay [1] (c 0.8 mg/mL, n = 3); 67% in assay [1] (c 1.1 mg/mL, n = 3); 74% in assay [1] (c 1.3 mg/mL, n = 3).

Consider Gentamicin-Penta-Pantothenate, for which the “calculated MIC” value in assay [2] (20 μg/cm^2) was 50 µg/mL; in assay [2] (50 μg/cm^2), 62.5 µg/mL; in assay [2] (100 μg/cm^2) it was 31.25 µg/mL. Besides, the “Growth Inhibition” value in assay [3] (700 μg/cm^2) worked out at 23%; in assay [3] (800 μg/cm^2), 18%; in assay [3] (900 μg/cm^2), 20%. Further, the “mathematically required minimum dose (lower limit)” value in assay [4] came to 28 μg/cm^2.

With calcium pantothenate [Ca pantothenate], the “GI (growth inhibition of the cell line L929)” value in assay [1] (c 0.3 mg/mL, n = 3) is on record as 0%; in assay [1] (c 0.6 mg/mL, n = 3), 0%; in assay [1] (c 1.2 mg/mL, n = 3), 4%; in assay [1] (c 1.8 mg/mL, n = 3) it was 7%; in assay [1] (c 2.4 mg/mL, n = 3) it was 1%; in assay [1] (c 3.0 mg/mL, n = 3) it was 2%.

Regarding gentamicin, the minimum inhibitory concentration in assay [5] is 64 µg/mL.

With gentamicin sulfate, the “GI (growth inhibition of the cell line L929)” value is on record as 4% in assay [1] (c 0.3 mg/mL, n = 3); 8% in assay [1] (c 0.6 mg/mL, n = 3); 12% in assay [1] (c 1.2 mg/mL, n = 3); 12% in assay [1] (c 1.8 mg/mL, n = 3); 22% in assay [1] (c 2.4 mg/mL, n = 3); 29% in assay [1] (c 3.0 mg/mL, n = 3).
